Results taken from ChEMBL document CHEMBL1156829 (Proc Natl Acad Sci U S A, 2008).

Legend:
Plasmodium falciparum [1] = assay: NOVARTIS: Inhibition of Plasmodium falciparum W2 (drug-resistant) proliferation in erythrocyte-based infection assay; assay type: functional, organism-based; settings: Plasmodium falciparum, W2; read-out: EC50
Plasmodium falciparum [2] = assay: NOVARTIS: Inhibition of Plasmodium falciparum 3D7 (drug-susceptible) proliferation in erythrocyte-based infection assay; assay type: functional, organism-based; settings: Plasmodium falciparum, 3D7
[3] = NOVARTIS: Cytotoxicity against human hepatocellular carcinoma cell line (Huh7); assay type: toxicity, cell-based, Huh-7; settings: Huh7 cells (hepatocellular carcinoma cell line)

SMILES | EC50 (Plasmodium falciparum [1]) | EC50 (Plasmodium falciparum [2]) | CC50 [3]
CCC(c1nc2ccccc2c(=O)n1-c1ccc(Cl)cc1C)N(CCc1ccccc1)C(=O)c1cccc(OC)c1 (stereo not drawn) | 232 nM | 519 nM | > 10000 nM
Cc1cccc(NC(=O)C2C3C=CC4(O3)C2C(=O)N(CC2COc3ccccc3O2)C4C(=O)NC2CCCC(C)C2C)c1 (stereo not drawn) | 1860 nM | > 8070 nM | > 100000 nM
Nc1cccc(C(=O)Nc2ccc(Oc3cccc(Oc4ccc(NC(=O)c5cccc(N)c5)cc4)c3)cc2)c1 | 2550 nM | > 12000 nM | > 100000 nM
CC(c1nc2ccccc2c(=O)n1-c1ccc(Br)cc1)N1CCN(S(=O)(=O)c2ccc3ccccc3c2)C(C)C1 (stereo not drawn) | 434 nM | > 1250 nM | > 10000 nM
O=C(COc1ccc(Cl)cc1)Nc1nnc(-c2ccc3c(c2)OCO3)s1 | 26.7 nM | > 1250 nM | > 13800 nM
Cc1cc(C(=O)N2CCOc3c(cc(-c4csc5ccccc45)cc3OCCc3ccccn3)C2)n(C)n1 | 13.9 nM | 32.5 nM | 46900 nM
CCCc1cc2c(=O)c(-c3ccc4c(c3)OCO4)c(CC)oc2cc1OC(C)C | > 12500 nM | 5840 nM | > 100000 nM
COC(=O)C1=C(C)NC2=C(C(=O)CC(c3ccc(Cl)cc3)C2)C1c1ccccc1 (stereo not drawn) | 152 nM | 342 nM | > 100000 nM
COC1=CC(=O)c2c(ccc3cc(O)ccc23)C1=O | 215 nM | 767 nM | > 10000 nM
COc1ccccc1-n1c(=O)c2c3c(sc2n2c(C)nnc12)CCC3 | > 1190 nM | > 1250 nM | > 10000 nM
CC(C)(C)CC(C)(C)Nc1c(-c2ccccc2OC(=O)c2ccc(Cl)cc2Cl)nc2ccccn12 | 10.3 nM | 279 nM | > 10000 nM
COCCOC(=O)C1=C(C)NC2=C(C(=O)CC(c3ccc(OC)c(OC)c3)C2)C1c1ccc(F)cc1 (stereo not drawn) | 17.7 nM | 38.2 nM | 46800 nM
C[C@H](Nc1cncc(-c2ccc(Cl)cc2)n1)c1ccccc1 | 56.2 nM | 53.7 nM | 71000 nM
CCC(CC)C(=O)N1CCOc2c(cc(-c3csc4ccccc34)cc2OCc2ccccn2)C1 | 1010 nM | 1110 nM | > 10000 nM
COC(=O)c1ccc(N(C(=O)Cc2c[nH]c3ccccc23)C(C(=O)NC2CCCCC2)c2ccccc2F)cc1 (stereo not drawn) | 197 nM | 200 nM | > 100000 nM
COC(=O)c1c(-c2c(Cl)cccc2Cl)noc1C=CNc1ccc(Cl)cc1 | 10500 nM | > 1790 nM | > 100000 nM
CC1=NNC(=O)C1C(c1ccc(Cl)cc1Cl)C1C(=O)NN=C1C (stereo not drawn) | > 1250 nM | > 484 nM | > 10000 nM
CCOC(=O)c1nnn(-c2nonc2N)c1-c1ccc(C)cc1 | 367 nM | 304 nM | > 100000 nM
CCOC(=O)c1cc(S(=O)(=O)NCc2ccc(F)cc2)n[nH]1 | 88.1 nM | > 847 nM | > 10000 nM
COc1ccc(C(=O)C(C)[n+]2ccccc2-c2ccccn2)cc1 (stereo not drawn) | > 751 nM | 602 nM | > 12100 nM
NC(=N[N+](=O)[O-])Nc1ccc(NC(=O)Nc2ccc(Cl)cc2)cc1 | 298 nM | > 900 nM | > 9610 nM
CC(C)CN1C(=O)c2ccccc2C(C(=O)Nc2ccc(C(C)C)cc2)C1c1cccs1 (stereo not drawn) | 1200 nM | 2410 nM | > 100000 nM

SMILES | EC50 (Plasmodium falciparum [1]) | EC50 (Plasmodium falciparum [2]) | CC50 [3]
O=C(CSc1ccccc1)NCCCCNc1ccnc2cc(Cl)ccc12 | 632 nM | 488 nM | > 10000 nM
O=C(c1ccc([N+](=O)[O-])o1)N1CCN(c2cccc(Cl)c2)CC1 | 1040 nM | 6330 nM | > 100000 nM
O=C(Nc1cc(C(=O)N2CCC(Cc3ccccc3)CC2)ccc1N1CC2CC(C1)c1cccc(=O)n1C2)c1cccs1 (stereo not drawn) | 64.4 nM | 74.4 nM | 49700 nM
COc1cc(OC)cc(C(=O)N(CCCC(C)Nc2cc(OC)cc3cccnc23)Cc2ccc(Cl)cc2)c1 (stereo not drawn) | 348 nM | > 439 nM | 9860 nM
COc1ccc2c(c1)N(C(=O)CSc1nc3ccccc3o1)C(C)(C)c1ssc(=S)c1-2 | 392 nM | 345 nM | > 100000 nM
CC1CC(C)CN(C(=O)c2sc3ccccc3c2Cl)C1 (stereo not drawn) | 64.5 nM | 35.7 nM | > 100000 nM
O=C(NCCCCCCNC(=O)Nc1nc(-c2ccc(F)cc2)cs1)Nc1nc(-c2ccc(F)cc2)cs1 | 5060 nM | 5970 nM | 51600 nM
O=C1C(Sc2nnc[nH]2)=CC(=NS(=O)(=O)c2cccs2)c2ccccc21 | 707 nM | 1530 nM | 6910 nM
CCCCCN(CCCCC)C(O)c1cc2c(c3ccccc13)CCCC2 (stereo not drawn) | 377 nM | 58.2 nM | 35400 nM
CCN1CCN(Cc2cc(Cl)cc(Cl)c2O)CC1 | 529 nM | 3000 nM | > 100000 nM
O=C1C=C(Nc2cccc(C(F)(F)F)c2)C(=O)c2ccccc21 | 519 nM | 549 nM | > 100000 nM
CCCN1CCc2c(sc3nc(SC)n(-c4ccccc4)c(=O)c23)C1 | 627 nM | 947 nM | > 100000 nM
CC(C)CNC(=O)c1cc(NC(=O)c2cccs2)ccc1N1CCc2ccccc2C1 | 32.7 nM | 349 nM | 893 nM
Cc1ccn2c(NC(C)(C)CC(C)(C)C)c(-c3ccccc3OC(=O)c3ccccc3F)nc2c1 | 6.35 nM | 951 nM | > 10000 nM
CN(C)C(=O)NCCCCNc1ccnc2cc(Cl)ccc12 | 609 nM | 992 nM | > 10000 nM
CCCn1c(SCC(=O)Nc2ccccc2Cl)nc2c1c(=O)n(C)c(=O)n2C | 1320 nM | > 1250 nM | > 10000 nM
Cc1c(Cl)cccc1NC(=O)CCC(=O)NNC(=O)c1ccccc1 | > 1250 nM | > 1010 nM | > 10000 nM
C[n+]1ccccc1/C=C/C1=C(c2ccccc2)Oc2ccccc2O1 | 249 nM | 133 nM | 14900 nM
CCN1CCN(Cc2ccc(N(CC)CC)cc2)CC1 | 3080 nM | > 12500 nM | > 100000 nM
CN1CCCC1CCNc1ncc(C(=O)NCCc2ccccc2)c(NCC2CCCCC2)n1 (stereo not drawn) | 1340 nM | 598 nM | > 10000 nM
CC(C)(C)CC(C)(C)Nc1c(-c2ccccc2OC(=O)c2ccco2)nc2ccccn12 | 4960 nM | > 12500 nM | > 100000 nM
CCOC(=O)c1sc(NC(=O)C(C)Sc2nnc(CNC(=O)c3ccc(OC)cc3)n2-c2ccccc2OC)c(C(=O)OCC)c1C (stereo not drawn) | 439 nM | > 1250 nM | > 10000 nM

SMILES | EC50 (Plasmodium falciparum [1]) | EC50 (Plasmodium falciparum [2]) | CC50 [3]
COc1cc(NC(C)CCCN(Cc2ccc(N(C)C)cc2)S(=O)(=O)c2c(C)cc(C)cc2C)c2ncccc2c1 (stereo not drawn) | < 13.4 nM | 533 nM | > 10600 nM
CC(=O)N(C1=C(N(C)C)C(=O)c2ccccc2C1=O)c1ccc(Cl)c(Cl)c1 | 73.4 nM | 82 nM | 8350 nM
C=CC1CN2CCC1C(C(O)c1ccnc3ccc(OC)cc13)C2 (stereo not drawn) | 15.1 nM | 7.21 nM | > 100000 nM
COC(=O)c1sc2nc(CN3CCCC(C)C3)ccc2c1NC(=O)c1ccc(C)s1 (stereo not drawn) | 1560 nM | 1810 nM | > 100000 nM
Nc1c(C(=O)Nc2ccc(C3=NCCN3)cc2)cccc1C(=O)Nc1ccc(C2=NCCN2)cc1 | 107 nM | 259 nM | > 10000 nM
O=[N+]([O-])c1cc(C(F)(F)F)cc([N+](=O)[O-])c1Sc1cccc2cccnc12 | 1120 nM | 4340 nM | 4340 nM
COc1ccc(Nc2ccccc2NC(=O)c2cccc(N(C)C)c2)cc1 | 2290 nM | 2450 nM | > 100000 nM
CC(CCc1ccccc1)N1CC(c2cccc([N+](=O)[O-])c2)OC1=S (stereo not drawn) | 18 nM | 307 nM | 32800 nM
CC1(C)CN=C(N2CCN(CC(O)COc3ccc(OCC(O)CN4CCN(C5=NCC(C)(C)S5)CC4)cc3)CC2)S1 (stereo not drawn) | > 1250 nM | 2420 nM | > 10000 nM
CC[C@@H](C(=O)[C@@H](C)C(O)[C@H](C)CCc1ccc(C)c(O)c1C(=O)O)C1O[C@](CC)(C2CC[C@](O)(CC)[C@H](C)O2)C[C@@H]1C (stereo partly drawn) | 315 nM | 541 nM | > 10000 nM
O=C1[C@@H]2CCCN2C(=O)C(c2ccc(Oc3ccccc3)cc2)N1CCc1ccccn1 (stereo partly drawn) | < 30.4 nM | > 1250 nM | > 10000 nM
CCOC(=O)c1ccc(NC(=O)c2cc(-c3ccccc3)nc3ccc(C)cc23)cc1 | 2100 nM | > 12500 nM | > 100000 nM
COc1ccc(S(=O)(=O)NCC2CCC(C(=O)NCC(OC)OC)CC2)cc1 (stereo not drawn) | > 1250 nM | > 1180 nM | > 10000 nM
CC(=O)Nc1ccc(-c2nc(-c3ccc(Oc4ccc(-c5[nH]c(-c6ccc(NC(C)=O)cc6)nc5-c5ccccc5)cc4)cc3)c(-c3ccccc3)[nH]2)cc1 | 5590 nM | 6950 nM | 50100 nM
Cc1ccc2nc3nc4c(C)cccc4c(N)c3cc2c1 | 157 nM | 102 nM | 6940 nM
CCC1CCCCN1C(=O)C1CC(=O)N(c2ccc(OC)cc2)C1c1ccc(OC)cc1 (stereo not drawn) | 394 nM | 387 nM | > 100000 nM
Cc1ccc2ncnc(Nc3cccc(C(F)(F)F)c3)c2c1 | 2170 nM | 947 nM | 27900 nM
COc1cccc(C=NNC(=O)c2ccccc2O)c1O | 969 nM | 5380 nM | 6640 nM
CCCCS(=O)(=O)N(C)CCCNc1ccnc2cc(Cl)ccc12 | < 9.18 nM | 68.8 nM | > 10000 nM
Cc1cc(C(C)(C)C)cc(S(=O)(=O)NCCO)c1C | 377 nM | > 12500 nM | > 100000 nM
CCOc1ccc(Nc2nc(N)c3ccccc3n2)cc1 | 1580 nM | 862 nM | 2370 nM
CCN1CCN(c2cc(C)c3cc(NC(=O)/C=C/c4sccc4C)ccc3n2)CC1 | > 1550 nM | 1590 nM | > 10000 nM
